In the assay the test system is T1, D24 lipase.
T1 construct: native extracellular lipase from culture supernatant, only partially purified (dialysed, 10 kDa cut-off concentrated)
Description: spectrophotometric p-nitrophenyl palmitate hydrolysis, Lineweaver-Burk. The format is biochemical, Naganishia albida. The conditions noted are these: pH 5.6, 37 °C; partially purified native enzyme, free.

As for `CCCCCCCCCCCCCCCC(=O)Oc1ccc([N+](=O)[O-])cc1` [p-nitrophenyl palmitate], the Km is 0.158 µM.

What is called Km is the substrate concentration at which the rate is half of its maximum.

(Values after publication PMC12165992, “Biochemical characterization of lipase from Cryptococcus albidus (D24) and its application in sugar fatty acid ester synthesis” (Archives of Microbiology, 2025).)
